Data reported in publication PMC9681850, “Structural basis of synthetic agonist activation of the nuclear receptor REV-ERB” (Nature Communications, 2022).

Key:
[1] = target: T1, 5-HT1B (Homo sapiens, UniProt P28222); assay: PDSP radioligand binding assay; details: read-out: RLBA Ki
T1 construct: NIMH Psychoactive Drug Screening Program (assay performed there)
From the text: (§1) Receptor RLBA Ki Receptor activity
(§2) Suppl ementary Tabl e 1. Speci fi ci ty of STL1267. […]

[2] = target: T2, 5-HT1D (Homo sapiens, UniProt P28221); assay: PDSP radioligand binding assay; details: read-out: RLBA Ki
T2 construct: NIMH Psychoactive Drug Screening Program (assay performed there)
From the text: as §1, §2

[3] = target: T3, 5-HT2A (Homo sapiens, UniProt P28223); assay: PDSP radioligand binding assay; details: read-out: RLBA Ki
T3 construct: NIMH Psychoactive Drug Screening Program (assay performed there)
From the text: as §1, §2

[4] = target: T4, 5-HT2B (Homo sapiens, UniProt P41595); assay: PDSP radioligand binding assay; details: read-out: RLBA Ki
T4 construct: NIMH Psychoactive Drug Screening Program (assay performed there)
From the text: as §1, §2

[5] = target: T5, 5-HT2C (Homo sapiens, UniProt P28335); assay: PDSP radioligand binding assay; details: read-out: RLBA Ki
T5 construct: NIMH Psychoactive Drug Screening Program (assay performed there)
From the text: as §1, §2

[6] = target: T6, 5-HT3 (Homo sapiens, UniProt P46098); assay: PDSP radioligand binding assay; details: read-out: RLBA Ki
T6 construct: NIMH Psychoactive Drug Screening Program (assay performed there)
From the text: as §1, §2

[7] = target: T7, 5-HT5A (Homo sapiens, UniProt P47898); assay: PDSP radioligand binding assay; details: read-out: RLBA Ki
T7 construct: NIMH Psychoactive Drug Screening Program (assay performed there)
From the text: as §1, §2

[8] = target: T8, 5-HT6 (Homo sapiens, UniProt P50406); assay: PDSP radioligand binding assay; details: read-out: RLBA Ki
T8 construct: NIMH Psychoactive Drug Screening Program (assay performed there)
From the text: as §1, §2

[9] = target: T9, Alpha1A (Homo sapiens, UniProt P35348); assay: PDSP radioligand binding assay; details: read-out: RLBA Ki
T9 construct: NIMH Psychoactive Drug Screening Program (assay performed there)
From the text: as §1, §2

[10] = target: T10, Alpha1D (Homo sapiens, UniProt P25100); assay: PDSP radioligand binding assay; details: read-out: RLBA Ki
T10 construct: NIMH Psychoactive Drug Screening Program (assay performed there)
From the text: as §1, §2

[11] = target: T11, Alpha2B (Homo sapiens, UniProt P18089); assay: PDSP radioligand binding assay; details: read-out: RLBA Ki
T11 construct: NIMH Psychoactive Drug Screening Program (assay performed there)
From the text: as §1, §2

[12] = target: T12, Alpha2C (Homo sapiens, UniProt P18825); assay: PDSP radioligand binding assay; details: read-out: RLBA Ki
T12 construct: NIMH Psychoactive Drug Screening Program (assay performed there)
From the text: as §1, §2

[13] = target: BZP Rat Brain Site; assay: PDSP radioligand binding assay; details: read-out: RLBA Ki
From the text: as §1, §2

[14] = target: T13, Beta1 (Homo sapiens, UniProt P08588); assay: PDSP radioligand binding assay; details: read-out: RLBA Ki
T13 construct: NIMH Psychoactive Drug Screening Program (assay performed there)
From the text: as §1, §2

[15] = target: Beta2 (Homo sapiens, UniProt P07550); assay: PDSP radioligand binding assay; details: read-out: RLBA Ki
From the text: as §1, §2

[16] = target: Beta3 (Homo sapiens, UniProt P13945); assay: PDSP radioligand binding assay; details: read-out: RLBA Ki
From the text: as §1, §2

[17] = target: D1 (Homo sapiens, UniProt P21728); assay: PDSP radioligand binding assay; details: read-out: RLBA Ki
From the text: as §1, §2

[18] = target: D2 (Homo sapiens, UniProt P14416); assay: PDSP radioligand binding assay; details: read-out: RLBA Ki
From the text: as §1, §2

[19] = target: D5 (Homo sapiens, UniProt P21918); assay: PDSP radioligand binding assay; details: read-out: RLBA Ki
From the text: as §1, §2

[20] = target: DAT (Homo sapiens, UniProt Q01959); assay: PDSP radioligand binding assay; details: read-out: RLBA Ki
From the text: as §1, §2

[21] = target: DOR (Homo sapiens, UniProt P41143); assay: PDSP radioligand binding assay; details: read-out: RLBA Ki
From the text: as §1, §2

[22] = target: H1 (Homo sapiens, UniProt P35367); assay: PDSP radioligand binding assay; details: read-out: RLBA Ki
From the text: as §1, §2

[23] = target: H4 (Homo sapiens, UniProt Q9H3N8); assay: PDSP radioligand binding assay; details: read-out: RLBA Ki
From the text: as §1, §2

[24] = target: M1 (Homo sapiens, UniProt P11229); assay: PDSP radioligand binding assay; details: read-out: RLBA Ki
From the text: as §1, §2

[25] = target: M2 (Homo sapiens, UniProt P08172); assay: PDSP radioligand binding assay; details: read-out: RLBA Ki
From the text: as §1, §2

[26] = target: M3 (Homo sapiens, UniProt P20309); assay: PDSP radioligand binding assay; details: read-out: RLBA Ki
From the text: as §1, §2

[27] = target: M5 (Homo sapiens, UniProt P08912); assay: PDSP radioligand binding assay; details: read-out: RLBA Ki
From the text: as §1, §2

[28] = target: NET (Homo sapiens, UniProt P23975); assay: PDSP radioligand binding assay; details: read-out: RLBA Ki
From the text: as §1, §2

[29] = target: PBR (Rattus norvegicus, UniProt P16257); assay: PDSP radioligand binding assay; details: read-out: RLBA Ki
From the text: as §1, §2

[30] = target: AR (Homo sapiens, UniProt P10275); assay: Gal4-UAS reporter assay for nuclear receptor specificity; type: cell-based; details: Gal4 DBD-NR, HEK293 cells, 10 µM
From the text: (§3) We assessed the specificity of STL1267 using both in house nuclear receptor Gal4-NR reporter assays and the NIMH Psychoactive Drug Screening Program (PDSP) assays. We assessed the specificity of STL1267 in the PDSP’s radioligand displacement assays, screening for binding to off-target GPCRs, ion channels, transporters, and other drug targets (Table S1). Of the 43 targets assessed in this panel, we observed no detectable binding in 41 of them. […] Additional assessment in serotonin transporter and kappa opioid receptor activity in a functional assay may be warranted to determine absolute specificity.
as §1, §2
(§4) HEK293 cells transfected with Gal4-UAS l uc i f eras e and […]

[31] = target: ERα (Homo sapiens, UniProt P03372); assay: as above; type: cell-based; details: Gal4 DBD-NR, HEK293 cells, 10 µM; ERa
From the text: as §3, §1, §2, §4

[32] = target: ERβ (Homo sapiens, UniProt Q92731); assay: as above; type: cell-based; details: Gal4 DBD-NR, HEK293 cells, 10 µM; ERb
From the text: as §3, §1, §2, §4

[33] = target: LXRα (Homo sapiens, UniProt Q13133); assay: as above; type: cell-based; details: Gal4 DBD-NR, HEK293 cells, 10 µM; LXRa
From the text: as §3, §1, §2, §4

[34] = target: MR (Homo sapiens, UniProt P08235); assay: as above; type: cell-based; details: Gal4 DBD-NR, HEK293 cells, 10 µM
From the text: as §3, §1, §2, §4

[35] = target: PR (Homo sapiens, UniProt P06401); assay: as above; type: cell-based; details: Gal4 DBD-NR, HEK293 cells, 10 µM
From the text: as §3, §1, §2, §4

[36] = target: RARα (Homo sapiens, UniProt P10276); assay: as above; type: cell-based; details: Gal4 DBD-NR, HEK293 cells, 10 µM; RARa
From the text: as §3, §1, §2, §4

[37] = target: T14, TRα (Homo sapiens, UniProt P10827); assay: as above; type: cell-based; details: Gal4 DBD-NR, HEK293 cells, 10 µM; TRa
T14 construct: purchased NIMH Psychoactive Drug Screening Program (PDSP); in-house Gal4-NR LBD cotransfection assays
From the text: as §3, §1, §2, §4

[38] = target: VDR (Homo sapiens, UniProt P11473); assay: as above; type: cell-based; details: Gal4 DBD-NR, HEK293 cells, 10 µM
From the text: as §3, §1, §2, §4

M5, sequence (P08912 whole entry): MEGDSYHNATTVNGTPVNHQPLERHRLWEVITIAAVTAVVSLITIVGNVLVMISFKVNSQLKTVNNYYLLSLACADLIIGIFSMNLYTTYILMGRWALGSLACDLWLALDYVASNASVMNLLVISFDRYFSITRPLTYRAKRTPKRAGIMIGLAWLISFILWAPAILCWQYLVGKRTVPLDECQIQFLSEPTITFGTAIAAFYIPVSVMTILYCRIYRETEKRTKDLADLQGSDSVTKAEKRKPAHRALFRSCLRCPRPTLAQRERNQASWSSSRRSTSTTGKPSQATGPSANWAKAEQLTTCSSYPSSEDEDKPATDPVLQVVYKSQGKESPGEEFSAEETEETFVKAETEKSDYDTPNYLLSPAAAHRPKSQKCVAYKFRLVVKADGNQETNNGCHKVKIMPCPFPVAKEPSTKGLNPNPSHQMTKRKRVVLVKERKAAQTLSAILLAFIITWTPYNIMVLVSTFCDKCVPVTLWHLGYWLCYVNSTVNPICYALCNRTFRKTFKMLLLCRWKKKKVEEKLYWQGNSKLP
T13 sequence (P08588 whole entry): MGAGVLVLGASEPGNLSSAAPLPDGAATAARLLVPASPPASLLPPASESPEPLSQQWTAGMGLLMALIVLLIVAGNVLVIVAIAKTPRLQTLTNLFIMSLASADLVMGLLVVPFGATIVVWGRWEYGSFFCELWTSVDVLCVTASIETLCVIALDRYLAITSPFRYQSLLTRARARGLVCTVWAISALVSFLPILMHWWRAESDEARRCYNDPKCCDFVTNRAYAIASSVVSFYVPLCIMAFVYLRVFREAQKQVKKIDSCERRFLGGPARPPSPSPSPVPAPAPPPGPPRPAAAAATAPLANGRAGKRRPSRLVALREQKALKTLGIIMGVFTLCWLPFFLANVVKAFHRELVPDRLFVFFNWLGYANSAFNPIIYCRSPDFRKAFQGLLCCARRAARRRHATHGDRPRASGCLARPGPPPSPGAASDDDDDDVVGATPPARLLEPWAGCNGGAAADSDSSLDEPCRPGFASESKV
T8 sequence (P50406 whole entry, species assumed): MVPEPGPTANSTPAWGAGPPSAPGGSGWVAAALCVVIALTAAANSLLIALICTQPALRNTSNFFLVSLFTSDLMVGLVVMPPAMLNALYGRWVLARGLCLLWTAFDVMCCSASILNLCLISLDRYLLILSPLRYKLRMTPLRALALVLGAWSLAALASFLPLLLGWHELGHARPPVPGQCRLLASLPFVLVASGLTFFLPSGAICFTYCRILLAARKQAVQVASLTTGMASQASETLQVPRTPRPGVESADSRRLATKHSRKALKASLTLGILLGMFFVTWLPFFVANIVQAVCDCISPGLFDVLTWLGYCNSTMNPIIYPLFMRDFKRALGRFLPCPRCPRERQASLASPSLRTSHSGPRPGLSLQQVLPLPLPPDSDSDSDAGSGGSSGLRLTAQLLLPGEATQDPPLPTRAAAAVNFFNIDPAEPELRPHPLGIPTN
ERβ, sequence (Q92731 264-498 limits assumed): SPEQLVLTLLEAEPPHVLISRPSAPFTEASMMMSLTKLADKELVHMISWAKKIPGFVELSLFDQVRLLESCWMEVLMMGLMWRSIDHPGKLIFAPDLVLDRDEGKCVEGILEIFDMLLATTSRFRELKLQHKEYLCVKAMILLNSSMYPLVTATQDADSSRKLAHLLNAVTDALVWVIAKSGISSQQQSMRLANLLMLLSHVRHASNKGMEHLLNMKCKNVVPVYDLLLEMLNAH
H1, sequence (P35367 whole entry): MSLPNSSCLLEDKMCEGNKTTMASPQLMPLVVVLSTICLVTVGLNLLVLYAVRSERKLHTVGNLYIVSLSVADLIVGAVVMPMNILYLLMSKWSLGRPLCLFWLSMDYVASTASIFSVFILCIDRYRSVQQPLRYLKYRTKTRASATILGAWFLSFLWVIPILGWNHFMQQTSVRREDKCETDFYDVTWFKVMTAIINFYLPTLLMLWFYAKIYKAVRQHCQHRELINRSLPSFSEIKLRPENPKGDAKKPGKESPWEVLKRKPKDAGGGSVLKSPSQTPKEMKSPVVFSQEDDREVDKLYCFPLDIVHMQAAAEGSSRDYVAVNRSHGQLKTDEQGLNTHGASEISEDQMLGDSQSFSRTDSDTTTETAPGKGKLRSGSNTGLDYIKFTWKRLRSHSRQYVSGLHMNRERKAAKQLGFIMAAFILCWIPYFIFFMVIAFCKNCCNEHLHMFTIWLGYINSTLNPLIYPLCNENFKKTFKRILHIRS
T7 sequence (P47898 whole entry, species assumed): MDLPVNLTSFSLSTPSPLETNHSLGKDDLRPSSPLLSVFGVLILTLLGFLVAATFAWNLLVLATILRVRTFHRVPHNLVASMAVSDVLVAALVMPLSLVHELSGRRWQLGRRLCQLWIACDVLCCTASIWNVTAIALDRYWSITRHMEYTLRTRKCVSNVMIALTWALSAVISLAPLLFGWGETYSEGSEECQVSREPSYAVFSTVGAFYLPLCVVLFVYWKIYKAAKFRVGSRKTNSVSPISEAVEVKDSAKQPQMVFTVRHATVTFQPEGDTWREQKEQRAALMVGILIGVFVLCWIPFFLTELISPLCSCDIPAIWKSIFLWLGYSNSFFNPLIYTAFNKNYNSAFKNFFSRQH
T12 sequence (P18825 whole entry): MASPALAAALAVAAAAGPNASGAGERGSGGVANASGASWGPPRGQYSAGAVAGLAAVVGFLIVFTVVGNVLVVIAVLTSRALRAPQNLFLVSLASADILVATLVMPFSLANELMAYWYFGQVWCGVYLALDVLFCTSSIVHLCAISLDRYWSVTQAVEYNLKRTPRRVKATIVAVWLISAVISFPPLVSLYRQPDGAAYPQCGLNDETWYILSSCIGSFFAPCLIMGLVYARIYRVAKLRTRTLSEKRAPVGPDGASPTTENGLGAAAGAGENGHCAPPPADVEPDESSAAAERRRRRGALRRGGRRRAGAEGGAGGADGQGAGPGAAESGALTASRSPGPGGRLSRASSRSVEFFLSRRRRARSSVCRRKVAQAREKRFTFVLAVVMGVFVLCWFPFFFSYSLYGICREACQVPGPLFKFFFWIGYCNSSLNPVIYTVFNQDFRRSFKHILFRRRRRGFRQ
MR, sequence (P08235 726-984 limits assumed): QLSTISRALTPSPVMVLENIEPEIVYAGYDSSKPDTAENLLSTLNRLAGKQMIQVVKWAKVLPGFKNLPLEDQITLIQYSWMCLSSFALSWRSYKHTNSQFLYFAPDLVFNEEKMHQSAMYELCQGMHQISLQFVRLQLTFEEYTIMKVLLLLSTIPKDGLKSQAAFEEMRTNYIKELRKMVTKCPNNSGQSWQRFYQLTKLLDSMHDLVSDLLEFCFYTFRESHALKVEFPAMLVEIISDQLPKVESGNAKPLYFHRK
NET, sequence (P23975 whole entry): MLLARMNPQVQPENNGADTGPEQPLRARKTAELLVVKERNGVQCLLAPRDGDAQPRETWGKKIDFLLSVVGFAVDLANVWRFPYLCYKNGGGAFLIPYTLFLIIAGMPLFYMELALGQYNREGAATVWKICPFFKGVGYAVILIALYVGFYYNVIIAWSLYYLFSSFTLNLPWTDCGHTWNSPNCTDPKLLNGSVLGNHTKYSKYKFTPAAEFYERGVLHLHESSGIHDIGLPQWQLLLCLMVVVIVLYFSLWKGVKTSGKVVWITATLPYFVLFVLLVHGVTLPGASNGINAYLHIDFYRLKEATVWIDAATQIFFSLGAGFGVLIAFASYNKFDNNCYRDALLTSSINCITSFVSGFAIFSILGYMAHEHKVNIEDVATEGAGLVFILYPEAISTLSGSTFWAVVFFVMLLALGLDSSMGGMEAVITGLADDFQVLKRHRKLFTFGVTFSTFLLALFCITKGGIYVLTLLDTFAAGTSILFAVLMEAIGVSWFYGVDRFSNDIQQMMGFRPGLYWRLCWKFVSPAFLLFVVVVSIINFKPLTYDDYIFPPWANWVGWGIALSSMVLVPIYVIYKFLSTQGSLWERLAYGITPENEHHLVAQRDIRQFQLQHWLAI
T9 sequence (P35348 whole entry): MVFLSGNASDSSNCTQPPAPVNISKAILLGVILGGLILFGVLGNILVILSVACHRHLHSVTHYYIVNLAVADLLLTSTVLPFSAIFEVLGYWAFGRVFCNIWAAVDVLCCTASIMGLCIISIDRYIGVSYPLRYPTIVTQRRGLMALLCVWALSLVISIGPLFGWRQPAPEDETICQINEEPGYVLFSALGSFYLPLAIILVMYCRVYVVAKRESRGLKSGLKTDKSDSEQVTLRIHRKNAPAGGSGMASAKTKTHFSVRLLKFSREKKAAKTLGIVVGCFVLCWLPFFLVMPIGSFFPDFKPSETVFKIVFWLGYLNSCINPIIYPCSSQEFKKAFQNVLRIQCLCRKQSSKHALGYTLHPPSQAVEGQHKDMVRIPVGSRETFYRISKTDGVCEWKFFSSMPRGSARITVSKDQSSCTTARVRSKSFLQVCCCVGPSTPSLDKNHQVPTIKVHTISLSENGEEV
T2 sequence (P28221 whole entry, species assumed): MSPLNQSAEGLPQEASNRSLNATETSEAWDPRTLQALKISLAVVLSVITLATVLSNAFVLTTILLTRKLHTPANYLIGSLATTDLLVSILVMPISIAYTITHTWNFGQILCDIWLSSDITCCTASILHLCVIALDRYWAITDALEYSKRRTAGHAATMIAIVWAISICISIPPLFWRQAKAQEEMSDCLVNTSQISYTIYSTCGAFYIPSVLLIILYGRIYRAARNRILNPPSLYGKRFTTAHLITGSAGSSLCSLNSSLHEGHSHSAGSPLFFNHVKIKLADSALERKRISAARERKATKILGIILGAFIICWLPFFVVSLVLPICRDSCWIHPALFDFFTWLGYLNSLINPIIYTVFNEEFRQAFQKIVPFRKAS
RARα, sequence (P10276 183-417 limits assumed): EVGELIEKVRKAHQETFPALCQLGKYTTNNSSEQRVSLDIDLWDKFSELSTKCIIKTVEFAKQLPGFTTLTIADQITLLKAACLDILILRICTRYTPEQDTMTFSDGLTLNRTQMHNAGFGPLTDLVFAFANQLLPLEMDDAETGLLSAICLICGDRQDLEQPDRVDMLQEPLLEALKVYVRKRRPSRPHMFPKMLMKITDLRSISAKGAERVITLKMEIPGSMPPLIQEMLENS

Ki [1]: > 10 µM
Ki [2]: > 10 µM
Ki [3]: > 10 µM
Ki [4]: > 10 µM
Ki [5]: > 10 µM
Ki [6]: > 10 µM
Ki [7]: > 10 µM
Ki [8]: > 10 µM
Ki [9]: > 10 µM
Ki [10]: > 10 µM
Ki [11]: > 10 µM
Ki [12]: > 10 µM
Ki [13]: > 10 µM
Ki [14]: > 10 µM
Ki [15]: > 10 µM
Ki [16]: > 10 µM
Ki [17]: > 10 µM
Ki [18]: > 10 µM
Ki [19]: > 10 µM
Ki [20]: > 10 µM
Ki [21]: > 10 µM
Ki [22]: > 10 µM
Ki [23]: > 10 µM
Ki [24]: > 10 µM
Ki [25]: > 10 µM
Ki [26]: > 10 µM
Ki [27]: > 10 µM
Ki [28]: > 10 µM
Ki [29]: > 10 µM
activity [30]: did not detect activity
activity [31]: did not detect activity
activity [32]: did not detect activity
activity [33]: did not detect activity
activity [34]: did not detect activity
activity [35]: did not detect activity
activity [36]: did not detect activity
activity [37]: did not detect activity
activity [38]: did not detect activity
Compound: Clc1nnc2ccc(Oc3ccccc3-c3ccccc3)nn12 [STL1267]
